These compounds were tested on Oncopeltus fasciatus (assay: Insecticidal activity against Oncopeltus fasciatus fourth-instar nymphs assessed as induction of insect mortality after compound topical application measured 72 hr post compound application).
Format: functional
CN1C(=O)[C@]23C[C@H]4C(C)(C)[C@@]5(C[C@@]41CN2C(=O)C[C@@]3(C)O)C(=O)Nc1c5ccc2c1OC=CC(C)(C)O2 gave an LD50 of 0.91 µg. Compound CN1C(=O)[C@]23C[C@H]4C(C)(C)[C@@]5(C[C@@]41C[N+]2([O-])CC[C@@]3(C)O)C(=O)Nc1c5ccc2c1OC=CC(C)(C)O2 (stereo not given in full) [N-OXIDE PARAHERQUAMIDE] has an LD50 of 7.01 µg. With CN1C(=O)[C@@]23CCCN2C[C@@]12C[C@@]1(C(=O)Nc4c1ccc1c4OC=CC(C)(C)O1)C(C)(C)[C@@H]2C3 [PARAHERQUAMIDE B] the LD50 was 16.54 µg. For C[C@H]1CCN2C[C@]34C[C@@]5(C(=O)Nc6c5ccc5c6OC=CC(C)(C)O5)C(C)(C)[C@@H]3C[C@]12C(=O)N4C [PARAHERQUAMIDE E], the LD50 was 0.089 µg. Compound CN1C(=O)[C@]23C[C@@H]4C(C)(C)[C@@]5(C[C@@]41CN2CC[C@@]3(C)O)C(=O)Nc1c5ccc2c1OC=CC(C)(C)O2 [Paraherquamide A] has an LD50 of 0.32 µg.
